Holding throughout (type): biochemical
In one assay the target is T1, Lck (Homo sapiens, UniProt P06239).
T1 construct: Kinases are expressed as either kinase domains or full length constructs; made in house
The experiment in a line: Kinase inhibition assay (33P transfer), Lck. The note with it: read-out: Lck-1. An outline of the steps:
(§1)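 Radiometric readout: 33P incorporated into surface-bound poly(Glu,Tyr) 4:1 or poly(Arg,Ser) 3:1 is counted by liquid scintillation after a 0.5% phosphoric acid wash. Enzymes were GST or polyHis fusions (kinase domain or full length) from E. coli or High Five insect cells.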

In the next assay the target is T2, Zap-70 (Homo sapiens, UniProt P43403).
T2 construct: Kinases are expressed as either kinase domains or full length constructs; made in house
T2 sequence (P43403 1-619): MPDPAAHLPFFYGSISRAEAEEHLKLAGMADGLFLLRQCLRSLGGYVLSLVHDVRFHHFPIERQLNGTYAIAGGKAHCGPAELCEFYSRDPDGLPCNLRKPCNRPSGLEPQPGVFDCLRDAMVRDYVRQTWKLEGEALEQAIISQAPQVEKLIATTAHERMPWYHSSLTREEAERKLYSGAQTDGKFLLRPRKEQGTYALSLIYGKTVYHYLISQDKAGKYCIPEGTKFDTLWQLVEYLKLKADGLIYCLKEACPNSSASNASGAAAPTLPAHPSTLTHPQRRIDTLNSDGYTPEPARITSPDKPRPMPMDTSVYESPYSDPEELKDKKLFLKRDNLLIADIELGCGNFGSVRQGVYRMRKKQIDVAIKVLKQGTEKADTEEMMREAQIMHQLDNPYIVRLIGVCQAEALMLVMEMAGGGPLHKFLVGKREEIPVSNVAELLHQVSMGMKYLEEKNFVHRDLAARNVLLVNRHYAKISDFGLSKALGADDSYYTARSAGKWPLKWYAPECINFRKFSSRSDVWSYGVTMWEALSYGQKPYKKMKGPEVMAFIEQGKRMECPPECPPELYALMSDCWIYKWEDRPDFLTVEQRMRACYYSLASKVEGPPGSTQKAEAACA
The experiment in a line: Kinase inhibition assay (33P transfer), Zap-70. Particulars: read-out: Zap-1. In outline:
as §1

Another assay addresses T3, Itk (Homo sapiens, UniProt Q08881).
T3 construct: Kinases are expressed as either kinase domains or full length constructs; made in house
T3 sequence (Q08881 1-620): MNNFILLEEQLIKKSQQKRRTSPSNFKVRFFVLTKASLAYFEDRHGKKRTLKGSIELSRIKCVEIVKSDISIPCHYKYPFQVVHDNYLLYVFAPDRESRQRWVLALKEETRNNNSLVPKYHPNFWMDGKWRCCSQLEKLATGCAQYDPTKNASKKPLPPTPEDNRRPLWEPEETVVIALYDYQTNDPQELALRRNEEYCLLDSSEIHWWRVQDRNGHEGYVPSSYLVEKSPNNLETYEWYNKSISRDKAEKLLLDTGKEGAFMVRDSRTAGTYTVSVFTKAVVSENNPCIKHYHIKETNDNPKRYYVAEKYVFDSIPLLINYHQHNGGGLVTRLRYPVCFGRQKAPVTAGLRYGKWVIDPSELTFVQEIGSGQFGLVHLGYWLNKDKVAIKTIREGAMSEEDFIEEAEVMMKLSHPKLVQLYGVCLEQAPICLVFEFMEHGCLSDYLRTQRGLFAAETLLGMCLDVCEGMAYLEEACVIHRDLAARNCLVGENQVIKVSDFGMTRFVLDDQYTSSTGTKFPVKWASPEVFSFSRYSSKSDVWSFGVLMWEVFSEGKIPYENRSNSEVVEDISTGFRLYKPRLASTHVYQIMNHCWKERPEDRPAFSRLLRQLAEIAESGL
The experiment in a line: Kinase inhibition assay (33P transfer), Itk. Particulars: read-out: Itk-1. In outline:
(§2)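 Using immobilised substrate copolymers (poly(Glu,Tyr) 4:1; poly(Arg,Ser) 3:1) and [33P]ATP, purified fusion kinases were allowed to react; plates were then rinsed in 0.5% phosphoric acid and counted in a scintillation detector. Half-maximal inhibition of label transfer defines IC50.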

For another assay, the target named is T4, EGFR (Homo sapiens, UniProt P00533).
T4 construct: Kinases are expressed as either kinase domains or full length constructs; made in house
Description: Kinase inhibition assay (33P transfer), EGFR. Particulars: Table 2, kinase inhibition class; read-out: EGFR-1. An outline of the steps:
as §2

The next assay addresses T5, ErbB2 (Homo sapiens, UniProt P04626).
T5 construct: Kinases are expressed as either kinase domains or full length constructs; made in house
Description: Kinase inhibition assay (33P transfer), ErbB2. Particulars: read-out: ErbB2-2. An outline of the steps:
as §2

The target in the next assay is T6, Kdr (Homo sapiens, UniProt P35968).
T6 construct: Kinases are expressed as either kinase domains or full length constructs; made in house
T6 sequence (P35968 20-1356, species assumed): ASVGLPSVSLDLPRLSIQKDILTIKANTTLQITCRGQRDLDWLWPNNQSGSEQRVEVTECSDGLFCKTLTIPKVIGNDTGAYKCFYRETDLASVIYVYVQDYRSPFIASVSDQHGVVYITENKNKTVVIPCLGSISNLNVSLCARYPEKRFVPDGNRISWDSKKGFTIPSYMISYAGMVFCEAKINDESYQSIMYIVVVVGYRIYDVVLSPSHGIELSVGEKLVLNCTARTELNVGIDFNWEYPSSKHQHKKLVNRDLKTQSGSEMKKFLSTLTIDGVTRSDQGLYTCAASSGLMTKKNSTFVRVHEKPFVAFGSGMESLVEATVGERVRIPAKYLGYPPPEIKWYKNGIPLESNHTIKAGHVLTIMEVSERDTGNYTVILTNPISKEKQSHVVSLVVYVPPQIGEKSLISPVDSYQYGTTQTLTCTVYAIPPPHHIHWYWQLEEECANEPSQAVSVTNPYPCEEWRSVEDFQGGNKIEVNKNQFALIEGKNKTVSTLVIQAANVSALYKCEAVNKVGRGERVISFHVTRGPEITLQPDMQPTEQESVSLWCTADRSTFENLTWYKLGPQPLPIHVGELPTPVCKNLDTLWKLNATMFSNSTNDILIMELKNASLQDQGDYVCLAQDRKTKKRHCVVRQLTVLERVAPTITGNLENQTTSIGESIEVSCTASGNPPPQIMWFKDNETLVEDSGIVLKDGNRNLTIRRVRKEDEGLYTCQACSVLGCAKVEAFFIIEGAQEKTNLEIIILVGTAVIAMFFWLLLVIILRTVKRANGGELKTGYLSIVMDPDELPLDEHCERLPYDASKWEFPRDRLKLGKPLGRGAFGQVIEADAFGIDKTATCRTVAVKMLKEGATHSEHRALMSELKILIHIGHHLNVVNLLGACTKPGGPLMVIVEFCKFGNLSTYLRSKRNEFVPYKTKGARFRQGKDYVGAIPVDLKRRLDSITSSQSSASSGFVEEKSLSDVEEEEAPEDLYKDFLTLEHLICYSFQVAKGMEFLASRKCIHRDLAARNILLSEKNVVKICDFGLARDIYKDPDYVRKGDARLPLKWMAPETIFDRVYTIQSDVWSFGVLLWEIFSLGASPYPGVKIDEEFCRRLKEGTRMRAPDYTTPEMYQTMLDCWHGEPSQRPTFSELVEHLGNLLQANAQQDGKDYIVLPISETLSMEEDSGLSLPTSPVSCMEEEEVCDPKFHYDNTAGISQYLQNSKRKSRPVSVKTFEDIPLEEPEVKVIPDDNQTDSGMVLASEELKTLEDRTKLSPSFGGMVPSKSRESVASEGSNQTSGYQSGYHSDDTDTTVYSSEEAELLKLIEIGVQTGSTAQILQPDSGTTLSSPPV
The experiment in a line: Kinase inhibition assay (33P transfer), Kdr. The note with it: read-out: KDR-1. An outline of the steps: as §1

A further assay addresses T7, c-Met (Homo sapiens, UniProt P08581).
T7 construct: Kinases are expressed as either kinase domains or full length constructs; made in house
Description: Kinase inhibition assay (33P transfer), c-Met. Particulars: Table 2, kinase inhibition class; read-out: Met-1. In outline:
as §2

For a further assay, the target named is T8, AKT (Homo sapiens, UniProt Q9Y243).
T8 construct: Kinases are expressed as either kinase domains or full length constructs; made in house
Description: Kinase inhibition assay (33P transfer), AKT. The note with it: Table 2, kinase inhibition class; read-out: AKT3-1. In outline:
as §1

A further assay concerns the target T9, IGFR-1 (Homo sapiens, UniProt P08069).
T9 construct: Kinases are expressed as either kinase domains or full length constructs; made in house
The experiment in a line: Kinase inhibition assay, IGFR-1 (Table 2). Particulars: Table 2, kinase inhibition class.

For another assay, the target named is T10, PDGFRB (Homo sapiens, UniProt P09619).
T10 construct: Kinases are expressed as either kinase domains or full length constructs; made in house
T10 sequence (P09619 33-1106, species assumed): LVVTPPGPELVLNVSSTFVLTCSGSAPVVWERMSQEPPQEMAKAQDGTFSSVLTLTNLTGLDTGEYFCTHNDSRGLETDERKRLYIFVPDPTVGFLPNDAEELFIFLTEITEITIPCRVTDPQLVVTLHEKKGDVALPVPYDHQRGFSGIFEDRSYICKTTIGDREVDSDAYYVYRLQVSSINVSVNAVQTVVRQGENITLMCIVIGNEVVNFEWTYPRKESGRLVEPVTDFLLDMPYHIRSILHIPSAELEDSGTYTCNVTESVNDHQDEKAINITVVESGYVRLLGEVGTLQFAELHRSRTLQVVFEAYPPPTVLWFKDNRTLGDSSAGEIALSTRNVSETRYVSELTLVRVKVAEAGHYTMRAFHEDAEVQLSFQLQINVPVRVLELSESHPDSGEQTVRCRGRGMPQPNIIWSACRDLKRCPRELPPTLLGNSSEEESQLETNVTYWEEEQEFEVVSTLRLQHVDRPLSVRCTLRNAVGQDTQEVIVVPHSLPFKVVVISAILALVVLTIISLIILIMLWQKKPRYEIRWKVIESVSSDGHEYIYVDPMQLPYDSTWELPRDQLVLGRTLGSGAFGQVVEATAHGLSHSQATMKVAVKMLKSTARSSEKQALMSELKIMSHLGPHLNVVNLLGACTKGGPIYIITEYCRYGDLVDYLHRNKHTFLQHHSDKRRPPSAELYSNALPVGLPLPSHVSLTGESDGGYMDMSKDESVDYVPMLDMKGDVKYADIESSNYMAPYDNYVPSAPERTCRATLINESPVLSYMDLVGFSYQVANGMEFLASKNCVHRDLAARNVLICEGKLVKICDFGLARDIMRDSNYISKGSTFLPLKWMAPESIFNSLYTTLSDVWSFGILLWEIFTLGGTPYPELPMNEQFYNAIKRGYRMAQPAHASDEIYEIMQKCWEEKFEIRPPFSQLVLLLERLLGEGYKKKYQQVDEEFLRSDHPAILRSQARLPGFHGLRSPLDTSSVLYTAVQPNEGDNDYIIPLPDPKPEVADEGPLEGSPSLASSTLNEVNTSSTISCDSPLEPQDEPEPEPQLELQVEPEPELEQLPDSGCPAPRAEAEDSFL
Description: Kinase inhibition assay (33P transfer), PDGFRB. Particulars: read-out: PDGFRB-1.

T5 sequence (P04626 23-1255, species assumed): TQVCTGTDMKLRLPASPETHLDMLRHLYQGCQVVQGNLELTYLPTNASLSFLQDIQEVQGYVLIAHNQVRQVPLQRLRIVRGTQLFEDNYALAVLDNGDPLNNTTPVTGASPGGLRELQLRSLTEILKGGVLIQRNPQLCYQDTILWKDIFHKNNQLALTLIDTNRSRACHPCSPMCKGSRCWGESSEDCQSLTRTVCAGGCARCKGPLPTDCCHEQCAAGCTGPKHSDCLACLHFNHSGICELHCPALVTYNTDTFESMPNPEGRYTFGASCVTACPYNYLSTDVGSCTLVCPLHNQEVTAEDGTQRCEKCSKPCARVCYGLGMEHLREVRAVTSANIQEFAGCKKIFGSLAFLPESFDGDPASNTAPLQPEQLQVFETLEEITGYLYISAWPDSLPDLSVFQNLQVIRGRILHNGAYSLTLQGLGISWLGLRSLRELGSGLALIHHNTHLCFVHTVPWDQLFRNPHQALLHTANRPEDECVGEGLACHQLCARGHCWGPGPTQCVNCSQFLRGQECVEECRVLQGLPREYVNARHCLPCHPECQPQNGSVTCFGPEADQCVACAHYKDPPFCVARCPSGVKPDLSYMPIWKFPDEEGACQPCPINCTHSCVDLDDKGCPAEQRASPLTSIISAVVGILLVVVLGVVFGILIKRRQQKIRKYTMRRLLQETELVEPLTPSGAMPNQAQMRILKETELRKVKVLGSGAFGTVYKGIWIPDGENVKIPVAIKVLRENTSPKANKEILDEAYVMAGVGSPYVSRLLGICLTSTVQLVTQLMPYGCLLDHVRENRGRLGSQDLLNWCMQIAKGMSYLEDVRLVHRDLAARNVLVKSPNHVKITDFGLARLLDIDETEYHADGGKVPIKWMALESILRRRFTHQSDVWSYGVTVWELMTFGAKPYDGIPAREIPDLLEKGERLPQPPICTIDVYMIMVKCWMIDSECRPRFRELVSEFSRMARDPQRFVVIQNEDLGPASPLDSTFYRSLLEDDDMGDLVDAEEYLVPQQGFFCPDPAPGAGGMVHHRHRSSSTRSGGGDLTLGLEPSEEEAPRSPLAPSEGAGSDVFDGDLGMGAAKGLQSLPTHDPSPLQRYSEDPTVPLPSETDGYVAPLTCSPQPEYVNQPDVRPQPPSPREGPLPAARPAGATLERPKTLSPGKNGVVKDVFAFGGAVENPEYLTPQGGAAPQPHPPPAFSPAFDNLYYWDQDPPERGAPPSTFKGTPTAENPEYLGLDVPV
T9 sequence (P08069 31-1367): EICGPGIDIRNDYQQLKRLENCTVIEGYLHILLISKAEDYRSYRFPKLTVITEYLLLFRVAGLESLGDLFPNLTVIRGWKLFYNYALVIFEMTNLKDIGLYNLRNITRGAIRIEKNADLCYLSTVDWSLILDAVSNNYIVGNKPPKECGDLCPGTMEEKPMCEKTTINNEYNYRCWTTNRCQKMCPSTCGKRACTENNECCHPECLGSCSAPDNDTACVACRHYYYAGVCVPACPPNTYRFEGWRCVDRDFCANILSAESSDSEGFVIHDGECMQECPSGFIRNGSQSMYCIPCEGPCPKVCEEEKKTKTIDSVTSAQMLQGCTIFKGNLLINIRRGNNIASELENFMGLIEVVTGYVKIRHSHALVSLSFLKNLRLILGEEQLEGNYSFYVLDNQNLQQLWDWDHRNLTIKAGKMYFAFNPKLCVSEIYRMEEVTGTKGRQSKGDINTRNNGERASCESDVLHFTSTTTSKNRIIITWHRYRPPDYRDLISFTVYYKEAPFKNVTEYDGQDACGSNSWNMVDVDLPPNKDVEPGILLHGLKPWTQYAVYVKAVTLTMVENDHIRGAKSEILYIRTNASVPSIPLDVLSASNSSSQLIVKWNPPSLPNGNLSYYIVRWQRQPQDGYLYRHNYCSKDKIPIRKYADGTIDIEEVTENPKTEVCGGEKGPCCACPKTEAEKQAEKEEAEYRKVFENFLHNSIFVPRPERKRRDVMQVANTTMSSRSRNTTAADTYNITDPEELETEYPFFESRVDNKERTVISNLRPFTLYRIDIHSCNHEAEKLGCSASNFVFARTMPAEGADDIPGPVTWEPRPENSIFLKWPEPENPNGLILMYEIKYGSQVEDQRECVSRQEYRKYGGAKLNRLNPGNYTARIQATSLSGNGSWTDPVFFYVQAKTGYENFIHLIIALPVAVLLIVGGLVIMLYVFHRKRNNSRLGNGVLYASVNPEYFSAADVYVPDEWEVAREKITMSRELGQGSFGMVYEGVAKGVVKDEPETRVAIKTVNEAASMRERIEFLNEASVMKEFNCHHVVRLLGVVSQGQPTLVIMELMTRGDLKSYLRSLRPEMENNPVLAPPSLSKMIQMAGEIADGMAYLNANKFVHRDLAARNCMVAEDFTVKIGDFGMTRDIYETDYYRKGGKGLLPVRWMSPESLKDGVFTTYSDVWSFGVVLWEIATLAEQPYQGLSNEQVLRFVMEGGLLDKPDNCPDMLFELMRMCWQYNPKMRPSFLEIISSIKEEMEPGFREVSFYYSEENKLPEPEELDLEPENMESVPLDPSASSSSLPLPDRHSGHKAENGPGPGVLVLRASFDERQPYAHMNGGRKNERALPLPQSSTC

Turning to `Fc1ccc(Nc2ncnc(Nc3ccc4[nH]ncc4c3)n2)cc1Cl` [Compound 717], the IC50 was 1.12 to 6.75 µM at Lck; 1.12 to 6.75 µM on Zap-70; 1.12 to 6.75 µM on Itk; under 1.12 µM on EGFR; 1.12 to 6.75 µM at ErbB2; 1.12 to 6.75 µM on Kdr. Moreover, the IC50 on c-Met is 1.12 to 6.75 µM; at AKT, over 12.6 µM; on IGFR-1, 1.12 to 6.75 µM; at PDGFRB, under 1.12 µM.

Consider `CN(c1cccc(Cl)c1)c1ncnc(Nc2ccc3cn[nH]c3c2)n1` [Compound 718], for which the IC50 at Lck is over 12.8 µM; on Zap-70, 9.95 to 12.8 µM; at Itk, over 12.8 µM; at EGFR, under 1.14 µM; on ErbB2 it was over 12.8 µM; on Kdr, over 12.8 µM. For the same compound, the IC50 is over 12.8 µM at c-Met, 9.95 to 12.8 µM at AKT, over 12.8 µM on IGFR-1 and 6.82 to 9.95 µM at PDGFRB.

`Fc1ccc(Nc2ncnc(Nc3ccc4cn[nH]c4c3)n2)cc1Cl` [Compound 719]: the IC50 is over 12.6 µM at Lck; over 12.6 µM on Zap-70; over 12.6 µM at Itk; under 1.12 µM at EGFR; 6.75 to 9.84 µM on ErbB2; 1.12 to 6.75 µM on Kdr. For the same compound, the IC50 at c-Met, at AKT, on IGFR-1 and at PDGFRB was over 12.6 µM in each case.

Regarding `CN(c1cccc(Cl)c1)c1ncnc(Nc2cccc(Cc3nnn[nH]3)c2)n1` [Compound 720], the IC50 is 1.02 to 6.09 µM at Lck; 6.09 to 8.89 µM on Zap-70; over 11.4 µM at Itk; under 1.02 µM on EGFR; under 1.02 µM at ErbB2; 1.02 to 6.09 µM at Kdr. Besides, the IC50 at c-Met is under 1.02 µM; at AKT, over 11.4 µM; against IGFR-1, over 11.4 µM; at PDGFRB, 1.02 to 6.09 µM.

On to `CN(c1cccc(Cl)c1)c1ncnc(Nc2cccc(CNC(=O)O[C@@H]3CCOC3)c2)n1` [Compound 721], for which the IC50 is 0.879 to 5.28 µM on Lck; over 9.89 µM on Zap-70; over 9.89 µM at Itk; under 0.879 µM on EGFR; 0.879 to 5.28 µM at ErbB2; 0.879 to 5.28 µM at Kdr. In addition, the IC50 is 0.879 to 5.28 µM at c-Met, over 9.89 µM at AKT, 7.69 to 9.89 µM against IGFR-1 and 0.879 to 5.28 µM on PDGFRB.

For the compound `c1ccc(Cn2ncc3cc(Nc4ncnc(NCC5CCCCC5)n4)ccc32)cc1` [Compound 727], the IC50 at Lck was over 10.9 µM; on Zap-70 it was 5.8 to 8.46 µM; at Itk, over 10.9 µM; on EGFR it was over 10.9 µM; at ErbB2, over 10.9 µM; at Kdr, 8.46 to 10.9 µM. The IC50 on c-Met was 8.46 to 10.9 µM; at AKT, over 10.9 µM; against IGFR-1 it was over 10.9 µM; on PDGFRB it was over 10.9 µM.

As to `c1ccc(Cn2ncc3cc(Nc4ncnc(NCc5ccco5)n4)ccc32)cc1` [Compound 728], the IC50 on Lck was over 11.3 µM; on Zap-70, 1.01 to 6.04 µM; on Itk, over 11.3 µM; on EGFR, 1.01 to 6.04 µM; on ErbB2, over 11.3 µM; on Kdr, 1.01 to 6.04 µM. Further, the IC50 on c-Met is 1.01 to 6.04 µM; on AKT it was over 11.3 µM; at IGFR-1, 1.01 to 6.04 µM; on PDGFRB it was over 11.3 µM.

Regarding `c1ccc(Cn2ncc3cc(Nc4ncnc(Nc5ccc(N6CCOCC6)cc5)n4)ccc32)cc1` [Compound 729], the IC50 on Lck is 0.836 to 5.02 µM; on Zap-70 it was 5.02 to 7.31 µM; at Itk, 5.02 to 7.31 µM; on EGFR, under 0.836 µM; on ErbB2, 0.836 to 5.02 µM; on Kdr, 0.836 to 5.02 µM. The IC50 at c-Met was 0.836 to 5.02 µM; at AKT it was 7.31 to 9.4 µM; against IGFR-1, 0.836 to 5.02 µM; at PDGFRB, 0.836 to 5.02 µM.

On to `CC(=O)c1ccc(Nc2ncnc(Nc3ccc4c(cnn4Cc4ccccc4)c3)n2)cc1` [Compound 730], for which the IC50 is 5.51 to 8.04 µM at Lck; 0.919 to 5.51 µM on Zap-70; 0.919 to 5.51 µM at Itk; under 0.919 µM on EGFR; 0.919 to 5.51 µM on ErbB2; 0.919 to 5.51 µM on Kdr. The IC50 lay within 0.919 to 5.51 µM on c-Met, 5.51 to 8.04 µM at AKT, 0.919 to 5.51 µM on IGFR-1 and 0.919 to 5.51 µM on PDGFRB.

`N#CCc1ccc(Nc2ncnc(Nc3ccc4c(cnn4Cc4ccccc4)c3)n2)cc1` [Compound 731]: the IC50 at Lck is 0.925 to 5.55 µM; on Zap-70, 5.55 to 8.09 µM; at Itk, 0.925 to 5.55 µM; at EGFR, under 0.925 µM; at ErbB2, under 0.925 µM; on Kdr, 0.925 to 5.55 µM. Moreover, the IC50 at c-Met was in the range of 0.925 to 5.55 µM; at AKT it was 8.09 to 10.4 µM; against IGFR-1, 0.925 to 5.55 µM; at PDGFRB, 0.925 to 5.55 µM.

As to `COc1ccc(CNc2ncnc(Nc3ccc4c(cnn4Cc4ccccc4)c3)n2)cc1OC` [Compound 732], the IC50 on Lck was over 9.62 µM; at Zap-70, 7.49 to 9.62 µM; on Itk it was over 9.62 µM; on EGFR, 7.49 to 9.62 µM; on ErbB2 it was over 9.62 µM; at Kdr, over 9.62 µM. Also, the IC50 at c-Met is over 9.62 µM; at AKT it was over 9.62 µM; at IGFR-1 it was 7.49 to 9.62 µM; on PDGFRB, over 9.62 µM.

Take `CN(C)CCNc1ncnc(Nc2ccc3c(cnn3Cc3ccccc3)c2)n1` [Compound 733]: the IC50 at Lck is over 11.6 µM; on Zap-70 it was over 11.6 µM; at Itk, over 11.6 µM; at EGFR, 1.03 to 6.18 µM; at ErbB2 it was over 11.6 µM; on Kdr, over 11.6 µM. Besides, the IC50 at c-Met, at AKT, at IGFR-1 and on PDGFRB was over 11.6 µM throughout.

Consider `c1ccc(CCNc2ncnc(Nc3ccc4c(cnn4Cc4ccccc4)c3)n2)cc1` [Compound 734], for which the IC50 at Lck was over 10.7 µM; on Zap-70, 5.69 to 8.3 µM; at Itk, over 10.7 µM; on EGFR, over 10.7 µM; at ErbB2 it was 5.69 to 8.3 µM; at Kdr, 0.949 to 5.69 µM. For the same compound, the IC50 on c-Met was 8.3 to 10.7 µM; at AKT it was over 10.7 µM; against IGFR-1, 5.69 to 8.3 µM; on PDGFRB it was over 10.7 µM.

`c1ccc(Cn2ncc3cc(Nc4ncnc(Nc5ccc(N6CCCCC6)cc5)n4)ccc32)cc1` [Compound 735]: the IC50 on Lck was over 9.44 µM; on Zap-70, 5.04 to 7.34 µM; at Itk, 7.34 to 9.44 µM; at EGFR, under 0.839 µM; on ErbB2 it was 0.839 to 5.04 µM; on Kdr, 0.839 to 5.04 µM. For the same compound, the IC50 at c-Met was 7.34 to 9.44 µM; at AKT, 5.04 to 7.34 µM; against IGFR-1 it was 7.34 to 9.44 µM; on PDGFRB, over 9.44 µM.

The record behind these values is patent publication US7074789B2, “Kinase inhibitors” (Amgen Inc., priority 1999, dated 2006).
